Results reported in PubChem BioAssay (NCI).
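Assay format: 96-well plates, 48-hour exposure. Abbreviation: GI50, concentration required for 50% inhibition of growth. TGI is the concentration that stops growth completely.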

Assays:
Experiment in all cases: NCI tumour cell line growth inhibition, 48 h
SF-268 CNS = test system: SF-268 CNS
T-47D breast = test system: T-47D breast
RPMI-8226 leukemia = test system: RPMI-8226 leukemia
MDA-MB-231 breast = test system: MDA-MB-231 breast
MDA-MB-435 = test system: MDA-MB-435
MALME-3M melanoma = test system: MALME-3M melanoma
HCT-15 colon = test system: HCT-15 colon
OVCAR-4 ovarian = test system: OVCAR-4 ovarian
HS 578T breast = test system: HS 578T breast
CCRF-CEM leukemia = test system: CCRF-CEM leukemia
SK-MEL-5 melanoma = test system: SK-MEL-5 melanoma
DU-145 prostate = test system: DU-145 prostate
SNB-19 CNS = test system: SNB-19 CNS
NCI-H460 lung = test system: NCI-H460 lung
IGROV1 ovarian = test system: IGROV1 ovarian
UACC-257 melanoma = test system: UACC-257 melanoma
OVCAR-8 ovarian = test system: OVCAR-8 ovarian
CAKI-1 renal = test system: CAKI-1 renal
SN12C renal = test system: SN12C renal
UO-31 renal = test system: UO-31 renal
NCI-H226 lung = test system: NCI-H226 lung
KM12 colon = test system: KM12 colon
SNB-75 CNS = test system: SNB-75 CNS
HT29 colon = test system: HT29 colon
RXF 393 renal = test system: RXF 393 renal
SK-MEL-28 melanoma = test system: SK-MEL-28 melanoma
NCI/ADR-RES ovarian = test system: NCI/ADR-RES ovarian
COLO 205 colon = test system: COLO 205 colon

## O=C(Nc1ccccc1)Nc1ccc(Cl)c(Cl)c1
SF-268 CNS
  GI50: 4.76 µM
  TGI: > 100 µM
T-47D breast
  GI50: 2.57 µM
  TGI: > 100 µM
RPMI-8226 leukemia
  GI50: 2.83 µM
  TGI: 9.83 µM
MDA-MB-231 breast
  GI50: 3.9 µM
  TGI: 25.4 µM
MDA-MB-435
  GI50: 3.26 µM
  TGI: 33.9 µM
MALME-3M melanoma
  GI50: 2.86 µM
  TGI: 21.4 µM
HCT-15 colon
  GI50: 3.22 µM
  TGI: > 100 µM
OVCAR-4 ovarian
  GI50: 3.34 µM
  TGI: 71.5 µM
HS 578T breast
  GI50: 2.9 µM
  TGI: 29 µM
CCRF-CEM leukemia
  GI50: 4.87 µM
  TGI: > 100 µM
SK-MEL-5 melanoma
  GI50: 3.61 µM
  TGI: 14.4 µM
DU-145 prostate
  GI50: 3.69 µM
  TGI: > 100 µM
SNB-19 CNS
  GI50: 3.1 µM
  TGI: > 100 µM
NCI-H460 lung
  GI50: 3.06 µM
  TGI: > 100 µM
IGROV1 ovarian
  GI50: 3.63 µM
  TGI: > 100 µM
UACC-257 melanoma
  GI50: 3.73 µM
  TGI: 32.9 µM
OVCAR-8 ovarian
  GI50: 3.2 µM
  TGI: 79.3 µM
CAKI-1 renal
  GI50: 2.71 µM
  TGI: 24.7 µM
SN12C renal
  GI50: 3 µM
  TGI: > 100 µM
UO-31 renal
  GI50: 2.62 µM
  TGI: 21.9 µM
NCI-H226 lung
  GI50: 3.06 µM
  TGI: > 100 µM
KM12 colon
  GI50: 2.64 µM
  TGI: 20.5 µM
SNB-75 CNS
  GI50: 5.35 µM
  TGI: > 100 µM
HT29 colon
  GI50: 2.85 µM
  TGI: 20.2 µM
RXF 393 renal
  GI50: 6.31 µM
  TGI: 33.8 µM
SK-MEL-28 melanoma
  GI50: 4.55 µM
  TGI: > 100 µM
NCI/ADR-RES ovarian
  GI50: 3.05 µM
  TGI: 83.8 µM
COLO 205 colon
  GI50: 3.04 µM
  TGI: 11.1 µM
